Values joined by “and” are separate entries in the source; they are usually repeats but may differ in a detail not shown here. Equal values may be shown once. Toxic doses and inconclusive results are not listed. Cut-off read from the data, not from the text of the source: active = T/C of 150% or more; inactive = T/C below 125%.
Tested on: L1210 leukemia ip in BDF1 mice, survival T/C
Assay: NCI In Vivo Anticancer Drug Screen. Data for tumor model L1210 Leukemia (intraperitoneal) in B6D2F1 (BDF1) mice
Details: endpoint: mean survival time, higher = longer survival
In short: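 Mice bearing the transplanted tumor received compound or vehicle. Survival of the treated group was divided by that of the vehicle-treated control group to give the ratio.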

[1] = dose: 100.0 mg/kg/injection, schedule: Q01DX009 (ip), vehicle: Klucel (hydroxypropylcellulose) (HPC)
[2] = dose: 100.0 mg/kg/injection, schedule: Q04DX003 (ip), vehicle: Klucel (hydroxypropylcellulose) (HPC)
[3] = dose: 200.0 mg/kg/injection, schedule: Q01DX009 (ip), vehicle: Klucel (hydroxypropylcellulose) (HPC)
[4] = dose: 200.0 mg/kg/injection, schedule: Q04DX003 (ip), vehicle: Klucel (hydroxypropylcellulose) (HPC)
[5] = dose: 400.0 mg/kg/injection, schedule: Q01DX009 (ip), vehicle: Klucel (hydroxypropylcellulose) (HPC)
[6] = dose: 400.0 mg/kg/injection, schedule: Q04DX003 (ip), vehicle: Klucel (hydroxypropylcellulose) (HPC)
[7] = dose: 50.0 mg/kg/injection, schedule: Q01DX009 (ip), vehicle: Klucel (hydroxypropylcellulose) (HPC)

Measured: T/C

COc1cc(C=O)ccc1OC(=O)Nc1ccc([N+](=O)[O-])cc1Cl
inactive: [1] 98 % of control | [2] 103 % of control | [3] 98 % of control | [4] 97 % of control | [5] 98 % of control | [6] 105 % of control

CC(C)(O)C#Cc1ccccc1
inactive: [7] 99 % of control | dose: 100.0 mg/kg/injection, schedule: Q01DX005 (ip), vehicle: Klucel (hydroxypropylcellulose) (HPC) 105 % of control | [1] 99 % of control | dose: 100.0 mg/kg/injection, schedule: Q04DX002 (ip), vehicle: Klucel (hydroxypropylcellulose) (HPC) 95 % of control | dose: 200.0 mg/kg/injection, schedule: Q01DX005 (ip), vehicle: Klucel (hydroxypropylcellulose) (HPC) 97 % of control | [3] 92 % of control | dose: 200.0 mg/kg/injection, schedule: Q04DX002 (ip), vehicle: Klucel (hydroxypropylcellulose) (HPC) 113 % of control | dose: 400.0 mg/kg/injection, schedule: Q04DX002 (ip), vehicle: Klucel (hydroxypropylcellulose) (HPC) 102 % of control

CCn1c(C)nccc1=O
inactive: dose: 37.5 mg/kg/injection, schedule: Q01DX001 (ip), vehicle: saline 101 % of control | dose: 75.0 mg/kg/injection, schedule: Q01DX001 (ip), vehicle: saline 101 % of control | dose: 150.0 mg/kg/injection, schedule: Q01DX001 (ip), vehicle: saline 100 % of control

O=C(Nc1ccccc1)N1CCC2N(C(=O)Nc3ccccc3)CCC3N(C(=O)Nc4ccccc4)CCC1N23 (stereo unspecified)
inactive: [2] 94 % of control | [4] 96 % of control | [6] 100 % of control

CCOC(=O)C1CCCCC1=O (stereo unspecified)
inactive: [1] 88 % of control | [2] 93 % of control | [3] 97 % of control | [4] 98 % of control | [5] 111 % of control | [6] 96 % of control

NC(=O)c1cc([N+](=O)[O-])ccc1N
inactive: dose: 100.0 mg/kg/injection, schedule: Q01DX001 (ip), vehicle: other 103 % of control | dose: 100.0 mg/kg/injection, schedule: Q04DX003 (ip), vehicle: saline sonified 103 % of control | dose: 200.0 mg/kg/injection, schedule: Q01DX001 (ip), vehicle: other 112 % of control | dose: 200.0 mg/kg/injection, schedule: Q04DX003 (ip), vehicle: saline sonified 105 % of control | dose: 400.0 mg/kg/injection, schedule: Q01DX001 (ip), vehicle: other 95 % of control | dose: 400.0 mg/kg/injection, schedule: Q04DX003 (ip), vehicle: saline sonified 111 % of control

COc1ccc(CCNC(=O)c2ccccc2N=Cc2cc(Cl)cc(Cl)c2O)cc1OC
inactive: dose: 75.0 mg/kg/injection, schedule: Q01DX009 (ip), vehicle: Klucel (hydroxypropylcellulose) (HPC) 94 % of control | dose: 150.0 mg/kg/injection, schedule: Q01DX009 (ip), vehicle: Klucel (hydroxypropylcellulose) (HPC) 96 % of control | dose: 300.0 mg/kg/injection, schedule: Q01DX009 (ip), vehicle: Klucel (hydroxypropylcellulose) (HPC) 96 % of control

NC(=O)NC(CCl)NC(N)=O
inactive: dose: 25.0 mg/kg/injection, schedule: Q01DX009 (ip), vehicle: acetone 95 % of control | dose: 25.0 mg/kg/injection, schedule: Q04DX003 (ip), vehicle: saline 96 % of control | dose: 50.0 mg/kg/injection, schedule: Q01DX009 (ip), vehicle: acetone 94 % of control | dose: 50.0 mg/kg/injection, schedule: Q04DX003 (ip), vehicle: saline 94 % of control | dose: 100.0 mg/kg/injection, schedule: Q01DX001 (ip), vehicle: acetone 94 % of control | dose: 100.0 mg/kg/injection, schedule: Q04DX003 (ip), vehicle: saline 89 % of control

CON(C)C(=O)N1c2ccccc2Sc2ccccc21
inactive: dose: 25.0 mg/kg/injection, schedule: Q04DX002 (ip), vehicle: saline with Tween-80 88 % of control | dose: 50.0 mg/kg/injection, schedule: Q04DX002 (ip), vehicle: saline with Tween-80 95 % of control | dose: 100.0 mg/kg/injection, schedule: Q04DX002 (ip), vehicle: saline with Tween-80 103 % of control | dose: 200.0 mg/kg/injection, schedule: Q04DX002 (ip), vehicle: saline with Tween-80 95 % of control

C[C@H]1C[C@H]2[C@@H]3CC[C@](O)(C(=O)CO)[C@@]3(C)C[C@H](O)[C@]2(F)[C@@]2(C)C=CC(=O)C=C12
inactive: dose: 25.0 mg/kg/injection, schedule: Q01DX001 (sc), vehicle: steriod suspending solution 103 % of control | dose: 50.0 mg/kg/injection, schedule: Q01DX001 (sc), vehicle: steriod suspending solution 100 % of control | dose: 50.0 mg/kg/injection, schedule: Q04DX003 (sc), vehicle: Klucel (hydroxypropylcellulose) (HPC) 88 % of control | dose: 100.0 mg/kg/injection, schedule: Q01DX001 (sc), vehicle: steriod suspending solution 94 % of control | dose: 100.0 mg/kg/injection, schedule: Q04DX003 (sc), vehicle: Klucel (hydroxypropylcellulose) (HPC) 98 % of control | dose: 200.0 mg/kg/injection, schedule: Q01DX001 (sc), vehicle: steriod suspending solution 98 % of control | dose: 200.0 mg/kg/injection, schedule: Q04DX003 (sc), vehicle: Klucel (hydroxypropylcellulose) (HPC) 90 % of control

CCOC(=O)C1CCN(S(=O)(=O)c2ccc(C)cc2)c2cc(Cl)ccc2C1=O (stereo unspecified)
inactive: [1] 93 % of control | [2] 96 % of control | [3] 93 % of control | [4] 93 % of control | [5] 101 % of control | [6] 94 % of control

CN1C(=S)SC(c2ccccc2)N(C)C1c1ccccc1 (stereo unspecified)
inactive: [7] 101 % of control | [1] 98 % of control | [2] 89 % of control | [3] 106 % of control | [4] 89 % of control | [6] 86 % of control

CC(=O)Nc1ccc(OCCOC(=O)Nc2ccc(Cl)c(C(F)(F)F)c2)cc1
inactive: dose: 12.5 mg/kg/injection, schedule: Q01DX009 (ip), vehicle: carboxymethylcellulose (CMC) 95 % of control and 100 % of control | dose: 25.0 mg/kg/injection, schedule: Q01DX009 (ip), vehicle: carboxymethylcellulose (CMC) 95 % of control and 97 % of control | dose: 25.0 mg/kg/injection, schedule: Q04DX002 (ip), vehicle: carboxymethylcellulose (CMC) 92 % of control and 93 % of control | dose: 50.0 mg/kg/injection, schedule: Q04DX002 (ip), vehicle: carboxymethylcellulose (CMC) 95 % of control and 90 % of control | dose: 100.0 mg/kg/injection, schedule: Q01DX001 (ip), vehicle: carboxymethylcellulose (CMC) 97 % of control and 101 % of control | dose: 100.0 mg/kg/injection, schedule: Q04DX003 (ip), vehicle: carboxymethylcellulose (CMC) 92 % of control and 101 % of control | dose: 200.0 mg/kg/injection, schedule: Q01DX001 (ip), vehicle: carboxymethylcellulose (CMC) 97 % of control and 102 % of control | dose: 200.0 mg/kg/injection, schedule: Q04DX002 (ip), vehicle: carboxymethylcellulose (CMC) 94 % of control | dose: 200.0 mg/kg/injection, schedule: Q04DX003 (ip), vehicle: carboxymethylcellulose (CMC) 92 % of control | dose: 400.0 mg/kg/injection, schedule: Q01DX001 (ip), vehicle: carboxymethylcellulose (CMC) 97 % of control and 87 % of control | dose: 400.0 mg/kg/injection, schedule: Q01DX009 (ip), vehicle: carboxymethylcellulose (CMC) 88 % of control and 90 % of control | dose: 400.0 mg/kg/injection, schedule: Q04DX002 (ip), vehicle: carboxymethylcellulose (CMC) 94 % of control and 91 % of control | dose: 400.0 mg/kg/injection, schedule: Q04DX003 (ip), vehicle: carboxymethylcellulose (CMC) 92 % of control and 97 % of control

Oc1ccccc1/C=N/Nc1c2ccccc2nc2ccccc12
inactive: dose: 100.0 mg/kg/injection, schedule: Q01DX001 (ip), vehicle: saline 103 % of control | dose: 400.0 mg/kg/injection, schedule: Q01DX001 (ip), vehicle: saline 93 % of control

FCCNCCF
inactive: dose: 5.0 mg/kg/injection, schedule: Q01DX001 (ip), vehicle: saline 101 % of control | dose: 10.0 mg/kg/injection, schedule: Q01DX001 (ip), vehicle: saline 112 % of control

From PubChem BioAssay AID248 (DTP/NCI, 2004)
